Data reported in US9023789B2, “Amylin analogs and pharmaceutical compositions thereof” (Novo Nordisk A/S, priority 2012, dated 2015).
Read-outs that look alike come from different tables or passages of the source. Numbered stars: 1 amine (or outer) side, 2 acyl side, 3 side chain; on linkers, the order of the positions; unused ones are H or OH. Bridge positions count the residues as written; N and C are the ends. Side chains are listed from the residue outwards. Peptide text beside a SMILES is read from it. * marks the point of attachment. C20 diacid = O=C(O)CCCCCCCCCCCCCCCCCCC(=O)*; γGlu = O=C(O)[C@H](CCC(=O)[*:2])N[*:1]; AEEA = NCCOCCOCC(=O)O

Columns and labels:
[1] = target: T1, rat amylin receptor (rat calcitonin receptor + rat RAMP 3) (Rattus norvegicus, UniProt P32214+Q9JJ73); assay: ASSAY (VI) binding to the rat amylin receptor; conditions: for IC50: binding to rat amylin receptor, read-out: rAmylin-R bind IC50
T1 construct: expressed in transfected cells; host or cells: BHK tk'ts 13 (transient, FuGENE 6), membranes
T1 sequence (P32214 25-479 isoform P32214-2 limits assumed): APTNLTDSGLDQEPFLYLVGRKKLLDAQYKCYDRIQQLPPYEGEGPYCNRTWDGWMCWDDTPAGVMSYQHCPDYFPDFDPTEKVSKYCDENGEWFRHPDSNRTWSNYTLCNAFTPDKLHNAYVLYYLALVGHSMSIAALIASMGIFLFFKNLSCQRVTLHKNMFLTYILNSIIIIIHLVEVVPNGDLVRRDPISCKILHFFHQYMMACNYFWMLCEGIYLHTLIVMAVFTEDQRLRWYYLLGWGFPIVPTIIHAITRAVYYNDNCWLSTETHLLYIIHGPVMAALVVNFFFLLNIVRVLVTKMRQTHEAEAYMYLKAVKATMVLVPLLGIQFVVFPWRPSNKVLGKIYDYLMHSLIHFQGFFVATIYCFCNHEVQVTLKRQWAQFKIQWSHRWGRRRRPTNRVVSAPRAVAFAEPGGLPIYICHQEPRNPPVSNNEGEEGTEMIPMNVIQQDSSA
T1 sequence (Q9JJ73 23-147 partner): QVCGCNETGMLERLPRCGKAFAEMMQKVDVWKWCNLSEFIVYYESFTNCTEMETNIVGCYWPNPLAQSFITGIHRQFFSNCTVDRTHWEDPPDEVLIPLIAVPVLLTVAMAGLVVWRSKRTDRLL
Method in brief: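 The cell-membrane assay assessed binding at the rat amylin receptor. BHK tk′ts 13 cells were transfected transiently with rat calcitonin receptor, with FuGENE® 6 (Roche) as the transfection reagent, used per the manufacturer's recommendations. Approximately 48 hours after transfection the cells were harvested, and membranes were prepared for measuring binding.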

rat calcitonin receptor = target: T2, rat calcitonin receptor (Rattus norvegicus, UniProt P32214); assay: ASSAY (VIII) binding to the rat calcitonin receptor; conditions: Table 7, read-out: rCTR bind IC50
T2 construct: expressed in transfected cells; host or cells: BHK tk'ts 13 (transient, FuGENE 6), membranes
T2 sequence (P32214 25-479 isoform P32214-2 limits assumed): T1 sequence (P32214 25-479 isoform P32214-2 limits assumed)
Method in brief: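 BHK tk′ts 13 cells, transient rat calcitonin receptor transfection; DMEM + 10% FBS; harvest ~48 h post-transfection; membrane prep.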

[2] = target: T3, human amylin 3(a) receptor (human calcitonin receptor + RAMP-3) in BHK570 cells (Homo sapiens, UniProt O60896+P30988); assay: ASSAY (II)a functional assay, human amylin receptor (CRE luciferase); type: cell-based
T3 construct: expressed in transfected cells
Method in brief: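 Functional agonism was measured by CRE-luciferase reporter luminescence in BHK cells bearing calcitonin receptor, or calcitonin receptor plus RAMP-3 as the amylin 3(a) receptor. Stimulation lasted 3 hours at 37° C.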

[3] = target: T4, human amylin receptor (membranes from Amylin 3(a)/CRE-luc cells) (Homo sapiens, UniProt O60896+P30988); assay: ASSAY (V) binding to the human amylin receptor (SPA, 125I-rat amylin);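 further: competition binding of cell membranes (35 ng/µL) mixed with SPA beads in 384-well plates at 40 µL total volume, read by scintillation counting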
T4 construct: expressed in transfected cells
T4 sequence (P30988 25-474): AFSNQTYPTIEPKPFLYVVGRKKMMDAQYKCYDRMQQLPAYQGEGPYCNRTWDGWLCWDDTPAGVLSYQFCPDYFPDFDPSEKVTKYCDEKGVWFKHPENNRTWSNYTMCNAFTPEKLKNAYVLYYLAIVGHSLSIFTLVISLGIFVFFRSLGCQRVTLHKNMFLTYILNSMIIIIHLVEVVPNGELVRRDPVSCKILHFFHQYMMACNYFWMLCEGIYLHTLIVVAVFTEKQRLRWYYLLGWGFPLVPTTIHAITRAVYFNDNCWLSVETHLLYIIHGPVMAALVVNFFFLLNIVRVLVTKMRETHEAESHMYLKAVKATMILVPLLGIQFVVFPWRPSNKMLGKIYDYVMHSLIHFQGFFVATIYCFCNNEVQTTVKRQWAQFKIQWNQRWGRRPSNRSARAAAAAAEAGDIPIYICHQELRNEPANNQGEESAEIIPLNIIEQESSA
T4 sequence (O60896 24-148 partner): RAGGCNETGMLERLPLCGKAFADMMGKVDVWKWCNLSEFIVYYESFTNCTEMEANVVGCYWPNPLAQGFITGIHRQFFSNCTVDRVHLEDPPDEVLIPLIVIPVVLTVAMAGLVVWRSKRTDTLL

[4] = ASSAY (IV) determination of solubility; type: physicochemical
Method in brief: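 Solubility measured by UPLC of supernatant after centrifugation, following 18 h at room temperature. Peptide ([…] in water) was diluted 1:1 into 100 mM glycylglycine (pH 3.0, 4.0, 5.0) or bistrispropane (pH 6.0-8.0).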

[5] = Table 7, rat binding selectivity, rCTR IC50 / rAmylin-R IC50
[6] = Table 7a (preferred compounds), rat binding selectivity, rCTR IC50 / rAmylin-R IC50
[7] = ratio of rCTR bind IC50 to rAmylin-R bind IC50
[8] = hCTR funct. EC50 divided by hAmylin-R funct. EC50
[9] = human functional selectivity: hCTR funct. EC50 / hAmylin-R funct. EC50
[10] = Table 5, selectivity, hCTR bind IC50 / hAmylin-R bind IC50
[11] = Table 5a, selectivity, hCTR bind IC50 / hAmylin-R bind IC50
[12] = Table 5b, selectivity, hCTR bind IC50 / hAmylin-R bind IC50
[13] = Table 5c, selectivity, hCTR bind IC50 / hAmylin-R bind IC50
[14] = Table 7, human binding selectivity, included for comparison
[15] = Table 7a (preferred compounds), human binding selectivity, included for comparison
[16] = ratio of human calcitonin receptor binding IC50 to human amylin receptor binding IC50
[17] = bistrispropane buffer, pH 6.5, read-out: Solubility pH 6.5 Concentration
[18] = bistrispropane buffer, pH 7.5, read-out: Solubility pH 7.5 Concentration
[19] = bistrispropane buffer, pH 6.0, read-out: Solubility pH 6.0 Concentration
[20] = bistrispropane buffer, pH 7.0, read-out: Solubility pH 7.0 Concentration
[21] = bistrispropane buffer, pH 8.0, read-out: Solubility pH 8.0 Concentration
[22] = glycylglycine buffer, pH 3.0, read-out: Solubility pH 3.0 Concentration
[23] = glycylglycine buffer, pH 4.0, read-out: Solubility pH 4.0 Concentration
[24] = glycylglycine buffer, pH 5.0, read-out: Solubility pH 5.0 Concentration

| IC50 ([1]; Table 7) | Ratio rCT/rAmylin binding [1, 5] | Ratio rCT/rAmylin binding [1, 6] | Ratio rCT/rAmylin binding [1, 7] | IC50 (rat calcitonin receptor) | Ratio hCT/hAmylin funct. [2, 8] | Ratio hCT/hAmylin funct. [2, 9] | Ratio hCT/hAmylin binding [3, 10] | Ratio hCT/hAmylin binding [3, 11] | Ratio hCT/hAmylin binding [3, 12] | Ratio hCT/hAmylin binding [3, 13] | Ratio hCT/hAmylin binding [3, 14] | Ratio hCT/hAmylin binding [3, 15] | Ratio hCT/hAmylin binding [3, 16] | solubility at 18 h [4, 17] | solubility at 18 h [4, 18] | solubility at 18 h [4, 19] | solubility at 18 h [4, 20] | solubility at 18 h [4, 21] | solubility at 18 h [4, 22] | SMILES | also measured |
| --- | --- | --- | --- | --- | --- | --- | --- | --- | --- | --- | --- | --- | --- | --- | --- | --- | --- | --- | --- | --- | --- |
| 5.45 nM | 71.3 | 71.3 | 71.3 | 389 nM | 33.0 | 33.0 | 63.4 | 63.4 | 63.4 | 63.4 | 63.4 | 63.4 | 63.4 | ≥ 200 µM | ≥ 200 µM | ≥ 200 µM | ≥ 200 µM | ≥ 200 µM | ≥ 200 µM | CC[C@H](C)[C@H](NC(=O)[C@H](C)NC(=O)CNC(=O)[C@H](Cc1ccccc1)NC(=O)[C@H](CC(N)=O)NC(=O)[C@@H]1CCCN1C(=O)[C@H](CO)NC(=O)[C@H](CO)NC(=O)[C@H](Cc1c[nH]cn1)NC(=O)[C@H](CCCNC(=N)N)NC(=O)[C@H](CC(C)C)NC(=O)[C@H](Cc1ccccc1)NC(=O)[C@H](CC(N)=O)NC(=O)[C@H](C)NC(=O)[C@H](CC(C)C)NC(=O)[C@H](CCCNC(=N)N)NC(=O)[C@H](CCC(N)=O)NC(=O)[C@@H](NC(=O)[C@H](C)NC(=O)[C@@H]1CSSC[C@H](NC(=O)[C@@H](N)CCCCNC(=O)COCCOCCNC(=O)COCCOCCNC(=O)CC[C@H](NC(=O)CCCCCCCCCCCCCCCCCCC(=O)O)C(=O)O)C(=O)N[C@@H](CC(N)=O)C(=O)N[C@@H]([C@@H](C)O)C(=O)N[C@@H](C)C(=O)N[C@@H]([C@@H](C)O)C(=O)N1)[C@@H](C)O)C(=O)N1CCC[C@H]1C(=O)N[C@@H](CO)C(=O)N[C@@H](CO)C(=O)N[C@H](C(=O)N[C@@H](CC(N)=O)C(=O)N[C@H](C(=O)NCC(=O)N[C@@H](CCCNC(=N)N)C(=O)N[C@@H](CC(N)=O)C(=O)N[C@H](C(=O)N[C@@H](Cc1ccc(O)cc1)C(N)=O)[C@@H](C)O)C(C)C)[C@@H](C)O [Example 95] (H-K([AEEA-AEEA-γGlu-C20 diacid])CNTATCATQRLANFLRHSSPNFGAIPSSTNVGRNTY-NH2; disulfide 2-7 (inferred); N-terminus assumed) | Ratio hCT/hAmylin funct. ([2]; hCTR funct. EC50 over hAmylin-R funct. EC50): 33.0; EC50 ([2]; human amylin receptor functional potency, assay (II), read-out: hAmylin-R funct. EC50): 0.651 nM; IC50 ([3]; Table 4, read-out: hAmylin-R bind IC50): 0.967 nM; solubility at 18 h [4, 23]: ≥ 200 µM; solubility at 18 h [4, 24]: ≥ 200 µM |
| 1.72 nM | 52.0 | 52.0 | 52.0 | 89.2 nM | 8.4 | 8.4 | 64.4 | 64.4 | 64.4 | 64.4 | 64.4 | 64.4 | 64.4 | ≥ 200 µM | ≥ 200 µM | ≥ 200 µM | ≥ 200 µM | ≥ 200 µM | ≥ 200 µM | CC[C@H](C)[C@H](NC(=O)[C@H](C)NC(=O)CNC(=O)[C@H](Cc1ccccc1)NC(=O)[C@H](CC(N)=O)NC(=O)[C@@H]1CCCN1C(=O)[C@H](CO)NC(=O)[C@H](CO)NC(=O)[C@H](Cc1c[nH]cn1)NC(=O)[C@H](CCCNC(=N)N)NC(=O)[C@H](CC(C)C)NC(=O)[C@H](Cc1ccccc1)NC(=O)[C@H](CC(N)=O)NC(=O)[C@H](C)NC(=O)[C@H](CC(C)C)NC(=O)[C@H](CCCNC(=N)N)NC(=O)[C@H](CCC(N)=O)NC(=O)[C@@H](NC(=O)[C@H](C)NC(=O)[C@@H]1CSSC[C@H](NC(=O)[C@H](CCCCN)NC(=O)CC[C@H](NC(=O)CCCCCCCCCCCCCCCCCCC(=O)O)C(=O)O)C(=O)N[C@@H](CC(N)=O)C(=O)N[C@@H]([C@@H](C)O)C(=O)N[C@@H](C)C(=O)N[C@@H]([C@@H](C)O)C(=O)N1)[C@@H](C)O)C(=O)N1CCC[C@H]1C(=O)N[C@@H](CO)C(=O)N[C@@H](CO)C(=O)N[C@H](C(=O)N[C@@H](CC(N)=O)C(=O)N[C@H](C(=O)NCC(=O)N[C@@H](CO)C(=O)N[C@@H](CCCCN)C(=O)N[C@H](C(=O)N[C@@H](Cc1ccc(O)cc1)C(N)=O)[C@@H](C)O)C(C)C)[C@@H](C)O [Example 34] | solubility at 18 h [4, 23]: ≥ 200 µM; solubility at 18 h [4, 24]: ≥ 200 µM |
